Experimental data published in patent publication US20260028374A1, “EPIDERMAL GROWTH FACTOR RECEPTOR INHIBITORS” (FILAMON LTD, priority 2023, published 2026).
Square brackets hold non-standard residues; d marks the D form. Peptide text beside a SMILES is read from it. 2Nal = N[C@@H](Cc1ccc2ccccc2c1)C(=O)O; d1Nal = N[C@H](Cc1cccc2ccccc12)C(=O)O

What was measured:
EGF-EGFR interaction = biological target: T1, EGF-EGFR interaction (Homo sapiens, UniProt P00533); experiment: EGF-EGFR AlphaLISA assay; assay type: binding; conditions: in vitro AlphaLISA; for inhibition of the EGF/EGFR interaction: 0.01-200 μM
T1 construct: purchased Perkin-Elmer
Description: FIG. 2. […] Representation of the molecules are as described in FIG. 1.
The AlphaLISA EGF/EGFR binding kit (Perkin-Elmer) was used as per the manufacturer's instructions. […] Finally, 5 μL of EGFR acceptor beads were added, and fluorescence imaged on a plate reader.

EGFR [1] = biological target: T2, EGFR (Homo sapiens, UniProt P00533); experiment: Western blot of EGFR in PC-3 cells; assay type: cell-based; conditions: PC-3, 100 μM, time course 3, 16, 24 and 48 hours
Description: (§1) FIG. 3. (a) PC-3 cells treated with DMSO (0.5%), FLM-c2 (100 μM), D1-D3 (100 μM) or EGF (50 ng/mL) for 24 h, detected for EGFR and GAPDH. (b) PC-3 cells tagged with EGFR-EGFP and lysotracker treated with DMSO (0.5%) or D3 (100 μM) for 24 h.
FIG. 4. (a) PC-3 cells were treated with D1-D3 (100 μM) for 3, 16, 24 and 48 hours. EGFR and ß-Actin ratio was detected. (b) the EGFR:ß-Actin ratio was plotted after normalising to DMSO control.
PC-3 cells were seeded in a 6 well plate at 200,000 cells/well overnight at 37° C. and 5% C02. Media was removed, cells were washed with PBS and serum free media added 1 hour before treatment with FLM-c2, D1-D3 for 3-48 hours. After treatment, media was removed and cells were washed with ice cold PBS. PBS was removed and cells were scraped into 1 mL of PBS containing 5.3 mM of EDTA and centrifuged at 2500 g for 2 min. PBS was removed and cells were lysed with lysis buffer (PBS, 0.1% NP-40, 0.1% sodium deoxycholate, 150 mM NaCl, 1 mM EDTA, 1 mM dithiothreitol, 1 mM phenylmethylsulfonyl fluoride, and IX protease inhibitor cocktail)^17 and mixed with RM-2L Intelli-mixer for 30 min at 4° C. Lysates were then centrifuged at 12,000 g for 20 min at 4° C. 20 μg of lysate was added to 4 μL of Bolt reducing agent and 10 μL of reducing buffer (both reagents supplied by Thermo Fisher Scientific) for a final volume of 40 μL with PBS. Samples were boiled and run on a gel, transferred to a membrane and blocked for 1 hour in 5% skim milk at 25° C. Membrane was probed with either EGFR antibody #2232, GAPDH antibody #2118 or BS-Actin antibody #4970 (Cell Signalling) at 1:1000 in 5% skim milk/TBST overnight at 4° C. Each membrane was washed three times with 50 mL TBST for 5 mins and then incubated with the relevant secondary α-rabbit IgG-HRP-linked antibody (1:1000), for 1 hour at room temperature. The membrane was washed as described above and imaged with the Licor Odyssey.

pERK = pERK immunofluorescence in A549 cells after EGF stimulation; assay type: cell-based; conditions: A549, 100 μM for 16 hours, then EGF 10 ng/mL
Description: FIG. 6: A549 cells were treated with DMSO or D1-D3 (10-100 μM) for 16 hours before incubation with EGF (10 ng/mL) for 30 minutes, before cells were fixed and stained for pERK (green). Scale bars 20 μm, n=3, >20 cells per replicate.
To examine whether LYTAPs can inhibit EGFR downstream signalling, A549 cells were pre-incubated with 10-100 μM of D1-D3 for 16 hours, before stimulation with EGF (10 ng/mL) for […]. Cells were then fixed and immunofluorescently stained for pERK.

[2] = test system: NSCLC cell lines H3255 and H1975; experiment: Combination cell viability in NSCLC cell lines; assay type: cell-based; conditions: H3255 and H1975, 72 hours
SW48 and SW48G12V = experiment: Combination cell viability in isogenic CRC cell lines; assay type: cell-based; conditions: D1 0.001-100 μM with cetuximab 0.02-30 μg/mL, 72 hours
EGFR [3] = biological target: T2, EGFR; experiment: EGFR and lysotracker staining in A549 cells; assay type: cell-based; design: endogenous in cells; host or cells: A549; conditions: A549, 16 hours
Description: FIG. 5: (a) A549 cells were treated with DMSO (0.5%), EGF (50 ng/mL), or D1-D3 (1-100 μM) for 16 hours, before staining with lysotracker (red), fixing and staining with EGFR antibody (green). (b) EGFR signal, (c) EGFR membrane signal, (d) lysotracker signal and (e) EGFR speckle lysotracker signal (bars SEM) were quantified (n=3, >20 cells per replicate). Scale bars 20 μm.
To investigate the mechanism of how LYTAPS cause EGFR degradation, LYTAPs D1-D3 (1-100 μM) were incubated on A549 cells for 16 hours, with DMSO (0.5%) and high EGF (50 ng/mL) used as controls. Cells were then stained with Lysotracker, fixed and stained with EGFR-antibody. Under DMSO control, the majority of EGFR signal is present at the membrane (FIG. 5a).

[4] = test system: CRC and NSCLC cancer cell lines; experiment: Proliferation assays in CRC and NSCLC cancer cell lines
H3255 = conditions: H3255, EGFR - L858R, cited from earlier work
H1975 = conditions: H1975, EGFR- L858R/T790M, cited from earlier work
[5] = test system: EGFR, Rab5 and hGIIA localisation; experiment: Live cell imaging of EGFR, Rab5 and hGIIA localisation in PC-3 cells; assay type: cell-based; conditions: PC-3, Lapatinib 5 μM, control for EGFR inhibition
Description: (e) PC-3 cells co-transfected with Rab5-mCherry (red), EGFR-GFP (green) and treated with hGIIA/AF647 (purple) as well as c2 at 1 μM and 10 μM for 24 hours. EGF (25 ng/mL) and Lapatinib (5 μM) were used as control treatments. N=3, >5 cells per replicate.
The effect of c2 on EGFR, Rab5 and hGIIA localisation was also examined in PC-3 cells. PC-3 cells were co-transfected with EGFR-EGFP and Rab5-mCherry before treatment with hGIIA/AF647 and c2 at 0, 1 and 10 μM.

EGFR [6] = biological target: T2, EGFR; experiment: Live cell imaging, EGFR-EGFP and lysotracker in PC-3 cells; assay type: cell-based; conditions: PC-3, EGFR-EGFP and lysotracker, 100 μM, 24 hours
Description: as §1
PC-3 cells were seeded in a 24 well glass-bottom plate at 50 000 cells/well and incubated overnight at 37° C. and 5% CO2. Complete media was removed, wells washed with 500 μL of warm PBS for 1 min then removed and 500 μL serum free medium was added and left to incubate for one hour at 37° C. and 5% CO2. Cells were co-transfected with plasmids encoding fusion protein EGFR-EGFP (Addgene plasmid #32751, a gift from Alexander Sorkin) using Lipofectamine 3000 (Thermo Fisher Scientific) as per the manufacturer's instructions. Cells were incubated for 48 hours at 37° C. and 5% CO2, after which transfection efficiency was determined through observation of EGFP and signal with a confocal microscope LSM 800 (Zeiss). LysoTracker far red (Thermo Fisher Scientific) was incubated at 1 μM for 37° C. and 5% CO2. Cells were washed three times with PBS and serum free media was added to cells, Either DMSO (0.5%) or D3 (100 μM) were added overnight at 37° C. and 5% CO2 before imaging on the confocal microscope LSM 800 (Zeiss).

[7] = read-out: Resistance (value in brackets)

T2 sequence (P00533 25-1210): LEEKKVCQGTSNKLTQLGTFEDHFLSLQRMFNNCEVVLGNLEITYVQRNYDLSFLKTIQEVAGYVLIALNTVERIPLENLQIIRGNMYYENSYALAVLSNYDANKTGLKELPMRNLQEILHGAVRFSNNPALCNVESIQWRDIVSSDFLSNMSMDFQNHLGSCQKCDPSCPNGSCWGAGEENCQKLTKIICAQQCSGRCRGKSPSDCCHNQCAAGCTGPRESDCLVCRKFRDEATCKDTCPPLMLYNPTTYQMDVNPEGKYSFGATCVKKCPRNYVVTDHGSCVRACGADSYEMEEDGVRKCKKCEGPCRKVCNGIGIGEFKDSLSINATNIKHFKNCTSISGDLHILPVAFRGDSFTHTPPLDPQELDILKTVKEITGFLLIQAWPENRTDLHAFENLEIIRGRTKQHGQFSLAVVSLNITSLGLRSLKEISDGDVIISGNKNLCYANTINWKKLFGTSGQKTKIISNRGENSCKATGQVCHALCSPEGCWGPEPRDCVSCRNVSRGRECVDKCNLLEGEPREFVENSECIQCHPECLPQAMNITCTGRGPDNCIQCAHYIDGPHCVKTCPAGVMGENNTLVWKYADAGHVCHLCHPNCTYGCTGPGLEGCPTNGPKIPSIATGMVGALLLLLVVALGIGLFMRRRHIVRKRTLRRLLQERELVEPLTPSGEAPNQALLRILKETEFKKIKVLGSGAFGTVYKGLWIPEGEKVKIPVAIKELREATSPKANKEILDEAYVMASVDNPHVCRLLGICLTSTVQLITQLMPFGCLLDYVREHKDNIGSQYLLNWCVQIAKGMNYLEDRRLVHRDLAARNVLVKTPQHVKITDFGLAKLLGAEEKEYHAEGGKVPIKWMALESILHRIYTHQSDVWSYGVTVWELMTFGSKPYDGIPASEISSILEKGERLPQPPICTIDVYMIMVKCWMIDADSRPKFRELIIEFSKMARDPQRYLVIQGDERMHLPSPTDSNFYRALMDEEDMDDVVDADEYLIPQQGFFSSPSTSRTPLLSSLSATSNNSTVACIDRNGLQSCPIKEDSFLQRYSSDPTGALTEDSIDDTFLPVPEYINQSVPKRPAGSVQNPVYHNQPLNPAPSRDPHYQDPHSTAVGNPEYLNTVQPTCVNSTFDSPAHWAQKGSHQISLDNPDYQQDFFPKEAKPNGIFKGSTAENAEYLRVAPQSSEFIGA
T1 sequence (P00533 25-645 limits assumed): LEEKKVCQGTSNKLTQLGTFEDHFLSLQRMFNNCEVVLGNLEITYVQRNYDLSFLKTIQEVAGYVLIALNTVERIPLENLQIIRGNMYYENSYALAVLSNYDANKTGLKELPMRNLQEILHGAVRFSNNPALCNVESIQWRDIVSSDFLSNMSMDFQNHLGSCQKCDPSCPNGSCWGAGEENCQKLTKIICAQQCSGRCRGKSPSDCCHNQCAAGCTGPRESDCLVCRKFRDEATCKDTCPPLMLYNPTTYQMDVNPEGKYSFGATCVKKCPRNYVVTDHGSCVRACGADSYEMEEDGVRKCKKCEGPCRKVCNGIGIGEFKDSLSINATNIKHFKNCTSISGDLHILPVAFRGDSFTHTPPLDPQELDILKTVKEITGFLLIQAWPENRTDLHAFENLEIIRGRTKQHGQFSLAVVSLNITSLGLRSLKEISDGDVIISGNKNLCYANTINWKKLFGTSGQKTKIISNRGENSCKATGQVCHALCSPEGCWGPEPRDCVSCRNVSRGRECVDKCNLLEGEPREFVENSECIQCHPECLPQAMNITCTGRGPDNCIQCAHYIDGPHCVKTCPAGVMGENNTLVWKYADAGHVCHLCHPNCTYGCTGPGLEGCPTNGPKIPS

## CC(C)C[C@@H]1NC(=O)[C@@H](Cc2cccc3ccccc23)NC(=O)[C@H](CCCNC(=N)N)NC(=O)[C@H](Cc2ccc3ccccc3c2)NC(=O)[C@H](CO)NC1=O [Compound D1, cyclo[(D-1Nal)-Leu-Ser-(L-2Nal)-Arg]] (cyclo([2Nal]R[d1Nal]LS))
EGF-EGFR interaction
  potency order in inhibiting the EGF/EGFR interaction: FLM-c2>D1>D2>D3
  inhibition of the EGF/EGFR interaction: inhibited the EGF/EGFR interaction at high concentrations
EGFR [1]
  recovery of EGFR levels: returned to normal by 24 and 48 hours
pERK
  pERK signal, comparison among LYTAPs: largest effect
[2]
  synergy with cetuximab: potent synergy
  synergy with cetuximab, U0126 and chloroquine: exhibited synergy with all three
SW48 and SW48G12V
  synergy with cetuximab: significant synergy
EGFR [3]; 1 μM
  lysotracker signal of endocytosed EGFR speckles: significantly increased lysotracker signal
EGFR [3]; 1 μM, vs DMSO
  EGFR signal: significant reduction in EGFR signal
EGFR [3]; 100 μM
  lysotracker signal: increased lysotracker signal
  lysotracker signal of endocytosed EGFR speckles: significantly increased lysotracker signal
EGFR [3]; 100 μM, vs DMSO
  fraction of membrane-localised EGFR signal: significantly reduced
[4]; H3255, HCC827, H1975, HCT116, SW48, SW48G12V, HT29, RKO, 0.01-300 μM, 72 hours
  IC50 compared with c2, D2 and D3: lowest IC50 in all cell lines
[4]; HCC827, H1975 and H3255
  efficacy in NSCLC cell lines sensitive and resistant to erlotinib: retained efficacy
[4]; SW48 vs SW48G12V, HT29, HCT116 and RKO
  efficacy in cetuximab sensitive and resistant cell lines: comparable efficacy

## C#Cc1cccc(Nc2ncnc3cc(OCCOC)c(OCCOC)cc23)c1 [erlotinib]
H3255
  Resistance: Erlotinib sensitive
H3255; [7]
  IC50: 0.04 µM
H1975
  Resistance: Erlotinib resistant
H1975; [7]
  IC50: 4.3 µM

## CS(=O)(=O)CCNCc1ccc(-c2ccc3ncnc(Nc4ccc(OCc5cccc(F)c5)c(Cl)c4)c3c2)o1 [Lapatinib]
[5]
  effect on EGFR, Rab5 and hGIIA localisation: altering the localisation of hGIIA and Rab5 to become less punctate and more cytosolic

## CC(C)C[C@@H]1NC(=O)[C@@H](Cc2ccccc2)NC(=O)[C@H](CCCNC(=N)N)NC(=O)[C@H](Cc2ccccc2)NC(=O)[C@H](CO)NC1=O [Compound D3, cyclo[(D-Phe)-Leu-Ser-(L-Phe)-Arg)]] (cyclo(FR[dF]LS))
EGF-EGFR interaction
  potency order in inhibiting the EGF/EGFR interaction: FLM-c2>D1>D2>D3
  inhibition of the EGF/EGFR interaction: inhibited the EGF/EGFR interaction at high concentrations
EGFR [6]
  colocalization of EGFR with lysosomes: confirmed colocalization of EGFR with lysosomes
EGFR [3]; 1 μM, vs DMSO
  EGFR signal: significant reduction in EGFR signal
EGFR [3]; 100 μM
  lysotracker signal of endocytosed EGFR speckles: significantly increased lysotracker signal

## CC(C)C[C@@H]1NC(=O)[C@@H](Cc2ccccc2)NC(=O)[C@H](CCCNC(=N)N)NC(=O)[C@H](Cc2ccc3ccccc3c2)NC(=O)[C@H](CO)NC1=O [Compound D2, cyclo[(D-Phe)-Leu-Ser-(L-2Nal)-Arg]] (cyclo([2Nal]R[dF]LS))
EGF-EGFR interaction
  potency order in inhibiting the EGF/EGFR interaction: FLM-c2>D1>D2>D3
  inhibition of the EGF/EGFR interaction: inhibited the EGF/EGFR interaction at high concentrations
EGFR [1]
  recovery of EGFR levels: returned to normal by 24 and 48 hours
EGFR [3]; 1 μM
  lysotracker signal of endocytosed EGFR speckles: significantly increased lysotracker signal
EGFR [3]; 1 μM, vs DMSO
  EGFR signal: significant reduction in EGFR signal
EGFR [3]; 100 μM
  lysotracker signal: increased lysotracker signal
